Assay results: ChEMBL document CHEMBL1201862, “PubChem BioAssay data set” (2004)
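Dose response: 5 concentrations. Exposure: 48 h. Format: 96-well plates. Endpoint: linear interpolation; highest concentration if not reached. Here, GI50 denotes the concentration required for 50% inhibition of growth.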 Calls of active or inactive are those of the source. No stated cut-off is given here; in the data, active = GI50 up to about 1.1 µM and inactive = higher.

Legend:
Experiment in all cases: growth of human tumour cells (NCI), 48 h
786-0 = test system: 786-0
OVCAR-4 = test system: OVCAR-4
RPMI-8226 = test system: RPMI-8226
SNB-75 = test system: SNB-75
Hs-578T = test system: Hs-578T
IGROV-1 = test system: IGROV-1
SR = test system: SR
ACHN = test system: ACHN
CCRF-CEM = test system: CCRF-CEM
COLO 205 = test system: COLO 205
OVCAR-8 = test system: OVCAR-8
MDA-MB-231 = test system: MDA-MB-231
MDA-MB-435 = test system: MDA-MB-435
A549 = test system: A549
SF-539 = test system: SF-539
NCI-H522 = test system: NCI-H522
CAKI-1 = test system: CAKI-1
UO-31 = test system: UO-31
SK-MEL-5 = test system: SK-MEL-5
HT-29 = test system: HT-29
MDA-N = test system: MDA-N
SK-OV-3 = test system: SK-OV-3
SF-295 = test system: SF-295
K562 = test system: K562
OVCAR-3 = test system: OVCAR-3
SK-MEL-2 = test system: SK-MEL-2
LOX IMVI = test system: LOX IMVI
TK-10 = test system: TK-10
SN12C = test system: SN12C
HOP-62 = test system: HOP-62
NCI-H460 = test system: NCI-H460
DU-145 = test system: DU-145
BT-549 = test system: BT-549
MOLT-4 = test system: MOLT-4
KM12 = test system: KM12
M14 = test system: M14
NCI-H226 = test system: NCI-H226
UACC-257 = test system: UACC-257
HCT-15 = test system: HCT-15
HCT-116 = test system: HCT-116
SNB-19 = test system: SNB-19
T47D = test system: T47D
OVCAR-5 = test system: OVCAR-5
SW-620 = test system: SW-620
NCI/ADR-RES = test system: NCI/ADR-RES
U-251 = test system: U-251
RXF 393 = test system: RXF 393
SK-MEL-28 = test system: SK-MEL-28
SF-268 = test system: SF-268
PC-3 = test system: PC-3
NCI-H23 = test system: NCI-H23
UACC-62 = test system: UACC-62
MCF7 = test system: MCF7
HL-60 = test system: HL-60
EKVX = test system: EKVX
Malme-3M = test system: Malme-3M

Q: Which results are given for `C/C(=N/O)c1cccc(Nc2nc3ccc(Cl)cc3c3[nH]c4ccccc4c23)c1`?
A: GI50 (786-0): 1.36 µM (inactive); GI50 (OVCAR-4): 1.9 µM (inactive); GI50 (RPMI-8226): 1.66 µM (inactive); GI50 (SNB-75): < 0.01 µM (active); GI50 (Hs-578T): 2.65 µM (inactive); GI50 (IGROV-1): 1.5 µM (inactive); GI50 (SR): 1.24 µM (inactive); GI50 (ACHN): 0.929 µM (active); GI50 (CCRF-CEM): 1.34 µM (inactive); GI50 (COLO 205): 1.77 µM (inactive); GI50 (OVCAR-8): 1.93 µM (inactive); GI50 (MDA-MB-231): 2.59 µM (inactive); GI50 (MDA-MB-435): 1.81 µM (inactive); GI50 (A549): 1.6 µM (inactive); GI50 (SF-539): 3.33 µM (inactive); GI50 (NCI-H522): 1.12 µM (active); GI50 (CAKI-1): 2.24 µM (inactive); GI50 (UO-31): 2.33 µM (inactive); GI50 (SK-MEL-5): 1.18 µM (inactive); GI50 (HT-29): 1.23 µM (inactive); GI50 (MDA-N): 1.71 µM (inactive); GI50 (SK-OV-3): 3.42 µM (inactive); GI50 (SF-295): 1.41 µM (inactive); GI50 (K562): 2.02 µM (inactive); GI50 (OVCAR-3): 0.192 µM (active); GI50 (SK-MEL-2): 1.93 µM (inactive); GI50 (LOX IMVI): 1.91 µM (inactive); GI50 (TK-10): 2.32 µM (inactive); GI50 (SN12C): 2.51 µM (inactive); GI50 (HOP-62): 2.77 µM (inactive); GI50 (NCI-H460): 1.14 µM (inactive); GI50 (DU-145): 0.261 µM (active); GI50 (BT-549): 2.93 µM (inactive); GI50 (MOLT-4): 0.242 µM (active); GI50 (KM12): 1.38 µM (inactive); GI50 (M14): 1.82 µM (inactive); GI50 (NCI-H226): 2.69 µM (inactive); GI50 (UACC-257): 3.53 µM (inactive); GI50 (HCT-15): 1.44 µM; GI50 (HCT-116): 0.205 µM (active); GI50 (SNB-19): 2.88 µM (inactive); GI50 (T47D): 1.58 µM (inactive); GI50 (OVCAR-5): 2.07 µM (inactive); GI50 (SW-620): 1.06 µM (active); GI50 (NCI/ADR-RES): 1.92 µM (inactive); GI50 (U-251): 2.44 µM (inactive); GI50 (RXF 393): 1.67 µM (inactive); GI50 (SK-MEL-28): 2.12 µM (inactive); GI50 (SF-268): 1.53 µM (inactive); GI50 (PC-3): 1.79 µM (inactive); GI50 (NCI-H23): 1.92 µM (inactive); GI50 (UACC-62): 1.83 µM (inactive); GI50 (MCF7): 0.935 µM (active); GI50 (HL-60): 3.07 µM (inactive)

Q: How did the GI50 (786-0) turn out when `CCCCCCC(O)C(=O)OC1C2C(CC1(C)C)C(O)C13OC1C(O)C1(CO1)[C@@]23C` (stereo not given in full) was run?
A: 25.4 µM (inactive)

Q: What about the GI50 (OVCAR-4) of the same compound?
A: 22.7 µM (inactive)

Q: And the GI50 (RPMI-8226)?
A: 40.9 µM (inactive)

Q: What about the GI50 (SNB-75) of the same compound?
A: 8.83 µM (inactive)

Q: And the GI50 (Hs-578T)?
A: 28.2 µM (inactive)

Q: And the GI50 (IGROV-1)?
A: 43 µM (inactive)

Q: What about the GI50 (SR) of the same compound?
A: 52.2 µM (inactive)

Q: And the GI50 (ACHN)?
A: > 10 µM (inactive)

Q: And the GI50 (CCRF-CEM)?
A: 27.5 µM (inactive)

Q: And the GI50 (COLO 205)?
A: 49.2 µM (inactive)

Q: And the GI50 (OVCAR-8)?
A: 69.8 µM (inactive)

Q: What about the GI50 (MDA-MB-231) of the same compound?
A: 48.6 µM (inactive)

Q: What about the GI50 (MDA-MB-435) of the same compound?
A: 50.9 µM (inactive)

Q: And the GI50 (A549)?
A: 28.1 µM (inactive)

Q: And the GI50 (NCI-H522)?
A: 61.1 µM (inactive)

Q: What about the GI50 (CAKI-1) of the same compound?
A: > 100 µM (inactive)

Q: And the GI50 (UO-31)?
A: 66.8 µM (inactive)

Q: And the GI50 (SK-MEL-5)?
A: 13.4 µM (inactive)

Q: What about the GI50 (MDA-N) of the same compound?
A: 45.4 µM (inactive)

Q: What about the GI50 (SK-OV-3) of the same compound?
A: 61.2 µM (inactive)

Q: And the GI50 (SF-295)?
A: 71.4 µM (inactive)

Q: What about the GI50 (K562) of the same compound?
A: 30.3 µM (inactive)

Q: What about the GI50 (OVCAR-3) of the same compound?
A: 32.1 µM (inactive)

Q: What about the GI50 (LOX IMVI) of the same compound?
A: 19.2 µM (inactive)

Q: And the GI50 (TK-10)?
A: 44.9 µM (inactive)

Q: What about the GI50 (SN12C) of the same compound?
A: 54.7 µM (inactive)

Q: And the GI50 (HOP-62)?
A: 58.7 µM (inactive)

Q: What about the GI50 (NCI-H460) of the same compound?
A: > 10 µM (inactive)

Q: And the GI50 (DU-145)?
A: > 100 µM (inactive)

Q: What about the GI50 (BT-549) of the same compound?
A: 50.1 µM (inactive)

Q: What about the GI50 (MOLT-4) of the same compound?
A: 16.1 µM (inactive)

Q: What about the GI50 (KM12) of the same compound?
A: 47.6 µM (inactive)

Q: And the GI50 (M14)?
A: 40.6 µM (inactive)

Q: And the GI50 (UACC-257)?
A: 42.3 µM (inactive)

Q: What about the GI50 (HCT-15) of the same compound?
A: 81.7 µM

Q: What about the GI50 (HCT-116) of the same compound?
A: 47.4 µM (inactive)

Q: And the GI50 (SNB-19)?
A: 65.2 µM (inactive)

Q: And the GI50 (T47D)?
A: 62.5 µM (inactive)

Q: What about the GI50 (OVCAR-5) of the same compound?
A: > 100 µM (inactive)

Q: And the GI50 (EKVX)?
A: 54.5 µM (inactive)

Q: And the GI50 (NCI/ADR-RES)?
A: > 100 µM (inactive)

Q: What about the GI50 (U-251) of the same compound?
A: 37.1 µM (inactive)

Q: And the GI50 (RXF 393)?
A: 23 µM (inactive)

Q: What about the GI50 (SK-MEL-28) of the same compound?
A: 39.3 µM (inactive)

Q: And the GI50 (SF-268)?
A: 20.1 µM (inactive)

Q: And the GI50 (PC-3)?
A: 17.3 µM (inactive)

Q: What about the GI50 (NCI-H23) of the same compound?
A: 58.2 µM (inactive)

Q: What about the GI50 (UACC-62) of the same compound?
A: 26 µM (inactive)

Q: And the GI50 (MCF7)?
A: 36.4 µM (inactive)

Q: What about the GI50 (HL-60) of the same compound?
A: > 100 µM (inactive)

Q: What about the GI50 (Malme-3M) of the same compound?
A: > 100 µM (inactive)
